Test results as given in patent US12285431B2, “Treatment of Rb-negative tumors using topoisomerase inhibitors in combination with cyclin dependent kinase 4/6 inhibitors” (G1 Therapeutics, Inc., priority 2014, dated 2025).

Legend:
CDK4/CyclinD1 = CDK4/CyclinD1 (Homo sapiens, UniProt P11802); test: CDK4/cyclinD1 kinase assay (Nanosyn, Caliper microfluidic kinase detection); assay type: biochemical; conditions: Table 2; 12-point dose-response, ATP at Km (200 μM), 10 hr; read-out: CDK4/CycD1 IC50
Method: The assays were performed using microfluidic kinase detection technology (Caliper Assay Platform). The compounds were tested in 12-point dose-response format in singlicate at Km for ATP. Phosphoacceptor substrate peptide concentration used was 1 μM for all assays and Staurosporine was used as the reference compound for all assays. Specifics of each assay are as described below:
CDK4/CyclinD1: Enzyme concentration: 1 nM; ATP concentration: 200 μM; Incubation time: 10 hr.

HS68 cells = test: G1 arrest (cellular G1 and S-phase) assay, propidium iodide flow cytometry; assay type: cell-based, human; conditions: Homo sapiens, Hs68, HS68 cells
Method: HS68 cells (human skin fibroblast cell line (Rb-positive)) were stained with propidium iodide staining solution and run on Dako Cyan Flow Cytometer. The fraction of cells in G0-G1 DNA cell cycle versus the fraction in S-phase DNA cell cycle was determined using FlowJo 7.2.2 analysis.
The compounds listed in Table 1 were tested for their ability to arrest HS68 cells at the G1 phase of the cell cycle.

Chain of CDK4/CyclinD1 (P11802 whole entry, species assumed): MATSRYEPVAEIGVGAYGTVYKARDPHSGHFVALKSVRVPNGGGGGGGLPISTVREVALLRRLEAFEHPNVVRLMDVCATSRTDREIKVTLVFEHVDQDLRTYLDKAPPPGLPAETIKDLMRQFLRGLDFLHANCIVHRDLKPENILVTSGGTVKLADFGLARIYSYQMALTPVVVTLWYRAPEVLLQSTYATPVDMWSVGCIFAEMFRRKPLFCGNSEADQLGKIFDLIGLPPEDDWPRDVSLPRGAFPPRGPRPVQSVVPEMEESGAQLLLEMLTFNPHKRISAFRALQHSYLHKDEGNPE
Chain of CDK4/CyclinD1 (P24385 whole entry partner, species assumed): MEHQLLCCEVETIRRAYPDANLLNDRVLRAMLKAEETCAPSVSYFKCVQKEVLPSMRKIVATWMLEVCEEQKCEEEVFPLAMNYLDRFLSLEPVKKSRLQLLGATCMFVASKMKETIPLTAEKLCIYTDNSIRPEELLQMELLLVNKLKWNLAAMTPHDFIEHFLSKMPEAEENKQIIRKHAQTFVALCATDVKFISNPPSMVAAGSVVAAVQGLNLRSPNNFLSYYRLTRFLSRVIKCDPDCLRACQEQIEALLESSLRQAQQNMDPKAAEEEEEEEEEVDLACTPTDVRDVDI

IC50 (CDK4/CyclinD1) [nM]	EC50 (HS68 cells) [nM]	SMILES
1.4	210	CC1CN(c2ccc(Nc3ncc4cc5n(c4n3)C3(CCCC3)CNC5=O)nc2)CCN1CC1CC1 (stereo not drawn) [NNN]
10.5	500	CN1CCN(c2ccc(Nc3ncc4cc5n(c4n3)C3(CCCC3)CNC5=O)nc2)CC1 [ZZ]
2	1500	O=C1NCC2(CCCC2)n2c1cc1cnc(Nc3ccc(N4CCOCC4)nn3)nc12 [SSS]
	275	CC1CN(c2ccc(Nc3ncc4cc5n(c4n3)C3(CCCC3)CNC5=O)nc2)CCN1CCC(C)(C)C (stereo not drawn) [PPP]
1.5	175	O=C1NCC2(CCCCC2)n2c1cc1cnc(Nc3ccc(N4CCN(C5CCC5)CC4)cn3)nc12 [F]
10.5	500	O=C1NCC2(CCCC2)n2c1cc1cnc(Nc3ccc(N4CCNCC4)cn3)nc12 [QQQ]
0.8	75	CC(C)N1CCN(c2ccc(Nc3ncc4cc5n(c4n3)C3(CCCCC3)CNC5=O)nn2)CC1 [TT]
3.2	240	CCC(C)CN1[C@H](C)CN(c2ccc(Nc3ncc4cc5n(c4n3)C3(CCCC3)CNC5=O)nc2)C[C@@H]1C (stereo partly drawn) [JJJ]
13.7	350	CC(C)N1CCN(c2ccc(Nc3ncc4cc5n(c4n3)C3(CCCC3)CNC5=O)nc2)CC1C (stereo not drawn) [GGG]
1.3	225	C[C@H](O)CN1CCN(c2ccc(Nc3ncc4cc5n(c4n3)C3(CCCC3)CNC5=O)nc2)C[C@H]1C [XX]
2.6	400	CC(C)N1CCN(c2ccc(Nc3ncc4cc5n(c4n3)C3(CCCC3)CNC5=O)nn2)CC1 [RRR]
9.5	350	C[C@@H]1CN(c2ccc(Nc3ncc4cc5n(c4n3)C3(CCCC3)CNC5=O)nc2)C[C@H](C)N1 [DDD]
3.2	250	CCN(CC)C1CCN(c2ccc(Nc3ncc4cc5n(c4n3)C3(CCCC3)CNC5=O)nc2)CC1 [LLL]
2.5	350	O=C1NCC2(CCCCC2)n2c1cc1cnc(Nc3ccc(C(=O)N4CCNCC4)cn3)nc12 [Y]
1.3	190	CC(C)(C)CCN1CCN(c2ccc(Nc3ncc4cc5n(c4n3)C3(CCCC3)CNC5=O)nc2)CC1 [KKK]
	300	CC(C)[C@H]1CNC(=O)c2cc3cnc(Nc4ccc(N5CCNCC5)cn4)nc3n21 [UUU]
6	250	CC(C)N1CCN(c2ccc(Nc3ncc4cc5n(c4n3)C3(CCCC3)CNC5=O)nc2)CC1 [III]
3.7	110	C[C@@H]1CN(c2ccc(Nc3ncc4cc5n(c4n3)C3(CCCCC3)CNC5=O)nc2)CCN1C [NN]
1.9	100	C[C@@H]1CN(c2ccc(Nc3ncc4cc5n(c4n3)C3(CCCCC3)CNC5=O)nc2)C[C@H](C)N1C [DD]
3.3	200	C[C@@H](O)CN1CCN(c2ccc(Nc3ncc4cc5n(c4n3)C3(CCCC3)CNC5=O)nc2)C[C@@H]1C [VV]
	100	C[C@H]1CN(c2ccc(Nc3ncc4cc5n(c4n3)C3(CCCCC3)CNC5=O)nc2)CCN1CCC(C)(C)C [M]
18.5	300	CC(C)C[C@@H]1CNC(=O)c2cc3cnc(Nc4ccc(N5CCNCC5)cn4)nc3n21 [WWW]
1.5	175	CC1CN(c2ccc(Nc3ncc4cc5n(c4n3)C3(CCCCC3)CNC5=O)nc2)CCN1CCC(C)(C)C (stereo not drawn) [G]
3.4	350	CN(C)C1CCN(c2ccc(Nc3ncc4cc5n(c4n3)C3(CCCC3)CNC5=O)nn2)CC1 [TTT]
1.7	110	O=C1NCC2(CCCCC2)n2c1cc1cnc(Nc3ccc(N4CCN(CC5CC5)CC4)cn3)nc12 [HH]
11.4	300	CC(C)C[C@@H]1CNC(=O)c2cc3cnc(Nc4ccc(N5CCN(C)CC5)cn4)nc3n21 [XXX]
4.7		CCC(C)CN1CCN(c2ccc(Nc3ncc4cc5n(c4n3)C3(CCCC3)CNC5=O)nc2)CC1 (stereo not drawn) [FFF]
	300	CCC(C)[C@@H]1CNC(=O)c2cc3cnc(Nc4ccc(N5CCNCC5)cn4)nc3n21 (stereo partly drawn) [VVV]
